Measurements as given in PubChem BioAssay (NCI).
Where “and” joins values, the source holds several entries; their conditions need not be identical. Equal values may be shown once.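 Briefly, cells in 96-well plates were exposed to five compound concentrations for 48 h, and endpoints were estimated by linear interpolation. Abbreviation: GI50, concentration required for 50% inhibition of growth. The concentration for full growth arrest is given as TGI.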

What was measured:
Experiment in all cases: inhibition of tumour cell growth, NCI panel, 48 h
[1] = system: MOLT-4 leukemia
[2] = system: HCC-2998 colon
[3] = system: RXF 393 renal
[4] = system: KM20L2 colon
[5] = system: OVCAR-8 ovarian
[6] = system: SN12C renal
[7] = system: HOP-92 NSCLC
[8] = system: OVCAR-4 ovarian
[9] = system: MDA-MB-231 breast
[10] = system: MDA-N

For `CC/C(=C(/CC)c1ccc([O-])cc1)c1ccc([O-])cc1.CC/C(=C(\CC)c1ccc([O-])cc1)c1ccc([O-])cc1.O=C([CH-]C(=O)c1ccccc1)c1ccccc1.O=C([CH-]C(=O)c1ccccc1)c1ccccc1.O=C([CH-]C(=O)c1ccccc1)c1ccccc1.O=C([CH-]C(=O)c1ccccc1)c1ccccc1.[Ti+4].[Ti+4]`, the GI50 [1] was 27700 nM, the TGI [1] was over 100 µM and the GI50 [2] was 45.7 µM. The TGI [2] was over 100 µM, the GI50 [3] was 14.7 µM and the TGI [3] was 42.3 µM. For the same compound, the GI50 [4] was 29.5 µM, the TGI [4] was 77.8 µM and the GI50 [5] was 20.7 µM. For the same compound, the TGI [5] was 50.1 µM, the GI50 [6] was 47.1 µM and the TGI [6] was over 100 µM. For the same compound, the GI50 [7] was 19500 nM, the TGI [7] was 50 µM and the GI50 [8] was 42.9 µM. The TGI [8] was over 100 µM.
With `C[C@]12CCc3nonc3C1CC[C@@H]1C2CC[C@]2(C)NC(=O)CCC12` (stereo not given in full) the TGI [1] was over 100 µM, the TGI [3] was over 100 µM and the TGI [4] was over 100 µM. For the same compound, the TGI [5] was over 100 µM, the TGI [6] was over 100 µM and the TGI [7] was over 100 µM. The TGI [8] was over 100 µM.
For `O=C([O][Hg][CH2]C1COC([CH2][Hg][O]C(=O)c2ccccc2)CO1)c1ccccc1` (stereo not given), the GI50 [1] was 2180 nM and 1410 nM, the TGI [1] was 6.5 µM and 6.83 µM and the GI50 [2] was 17.6 µM and 3.65 µM. For the same compound, the TGI [2] was 32.2 µM and 9.35 µM, the GI50 [3] was 8.88 µM and 1.45 µM and the TGI [3] was 22.8 µM and 2.76 µM. For the same compound, the GI50 [4] was 17.9 µM, the TGI [4] was 32.7 µM and the GI50 [5] was 10.7 µM and 1.92 µM. The TGI [5] was 25.4 µM and 4.42 µM, the GI50 [6] was 12.2 µM and 1.54 µM and the TGI [6] was 24.6 µM and 3.02 µM. For the same compound, the GI50 [9] was 19.3 µM and 4.48 µM, the TGI [9] was 41.9 µM and 16.4 µM and the GI50 [10] was 12.5 µM and 3 µM. For the same compound, the TGI [10] was 25.5 µM and 11.7 µM, the GI50 [7] was 1870 nM and 1940 nM and the TGI [7] was 4.16 µM and 3.37 µM. For the same compound, the GI50 [8] was 11.3 µM and the TGI [8] was 25.2 µM.
`COc1ccc(C(=O)C(C(=O)C(=O)Nc2ccc(Cl)c(Cl)c2)c2ccc(OC)cc2)cc1` (stereo not given) showed a TGI [1] of over 100 µM, a TGI [2] of over 100 µM and a TGI [3] of over 100 µM. It also gave a TGI [4] of over 100 µM, a TGI [5] of over 100 µM and a TGI [6] of over 100 µM. It also gave a TGI [7] of over 100 µM and a TGI [8] of over 100 µM.
Work on `CC(C)(C)CC(C)(C)c1cc2c(O)c(c1)Cc1cc(C(C)(C)CC(C)(C)C)cc(c1O)Cc1cc(C(C)(C)CC(C)(C)C)cc(c1O)Cc1cc(C(C)(C)CC(C)(C)C)cc(c1O)Cc1cc(C(C)(C)CC(C)(C)C)cc(c1O)Cc1cc(C(C)(C)CC(C)(C)C)cc(c1O)C2` yielded a TGI [1] of over 100 µM, a TGI [2] of over 100 µM and a TGI [3] of over 100 µM. It also gave a TGI [4] of over 100 µM, a TGI [5] of over 100 µM and a TGI [6] of over 100 µM. It also gave a TGI [7] of over 100 µM and a TGI [8] of over 100 µM.
`COC(=O)C1=C(C(=O)OC)C23CC1C1C(C(=O)OC)=C(C(=O)OC)C12C1C=CC3C2C(=O)OC(=O)C21` (stereo not given) gave a TGI [1] of over 100 µM, a TGI [2] of over 100 µM and a TGI [3] of over 100 µM. For the same compound, the TGI [4] was over 100 µM, the TGI [5] was over 100 µM and the TGI [6] was over 100 µM. It also gave a TGI [7] of over 100 µM and a TGI [8] of over 100 µM.
Compound `O=P(NC12CC3CC(CC(C3)C1)C2)(N1CC1)N1CC1` has a TGI [1] of over 43.2 µM, a TGI [2] of over 100 µM and a TGI [3] of 74.3 µM. The TGI [4] was over 100 µM, the TGI [5] was over 100 µM and the TGI [6] was over 100 µM. For the same compound, the TGI [9] was over 100 µM, the TGI [10] was over 100 µM and the TGI [7] was over 100 µM. It also gave a TGI [8] of over 100 µM.
`O=C1N(c2ccccc2)C(=O)C2(SC=NN2Cc2ccccc2)N1c1ccccc1` (stereo not given) showed a TGI [1] of over 100 µM, a TGI [2] of over 100 µM and a TGI [3] of over 100 µM. For the same compound, the TGI [4] was over 100 µM, the TGI [5] was over 100 µM and the TGI [6] was over 100 µM. It also gave a TGI [7] of over 100 µM and a TGI [8] of over 100 µM.
`CC1(C)CCc2cc3c(cc2O1)OCC1c2cc4c(cc2OC31)OCO4` (stereo not given) was tested, and the TGI [1] was over 100 µM, the TGI [2] was over 100 µM and the TGI [3] was over 100 µM. The TGI [4] was over 100 µM, the TGI [5] was over 100 µM and the TGI [6] was over 100 µM. For the same compound, the TGI [7] was over 100 µM and the TGI [8] was over 100 µM.
With `CN(N=O)C(=O)N[C@@H](C=O)[C@@H](O)[C@H](O)[C@H](O)CO` the GI50 [1] was over 750000 nM, the TGI [1] was 574 µM and > 750 µM and the GI50 [2] was over 750 µM. For the same compound, the TGI [2] was 600 µM and > 750 µM, the GI50 [3] was over 750 µM and the TGI [3] was over 750 µM. The TGI [4] was over 750 µM, the GI50 [5] was over 750 µM and the TGI [5] was over 750 µM. For the same compound, the GI50 [6] was over 750 µM, the TGI [6] was 603 µM and > 750 µM and the TGI [9] was over 750 µM. For the same compound, the TGI [10] was over 750 µM, the GI50 [7] was over 750000 nM and the TGI [7] was 621 µM and > 750 µM. The GI50 [8] was over 750 µM and the TGI [8] was 609 µM and > 750 µM.
